Test results from patent US6960559B1, “Neurite growth regulatory factors” (University of Zurich, priority 1988, dated 2005).
Read-outs that look alike come from different tables or passages of the source. Where a SMILES comes first, the peptide text is derived from it. [ ]: non-standard residue; d: D form. The star is where a group is joined. Sta = CC(C)C[C@H](N)[C@@H](O)CC(=O)O; Isovaleryl = CC(C)CC(=O)*; Cbz = O=C(OCc1ccccc1)*

Experiments:
C6 cells [1] = test: C6 cell spreading on CNS myelin or PLYS with protease inhibitors; format: cell-based, rat; conditions: for Inhibition on CNS (%): spreading on PLYS minus spreading on CNS myelin
Description: Rat C6, mouse NIH 3T3 and B16 cells were cultured in Dulbecco's modified Eagle's medium (DMEM) supplemented with 10% fetal calf serum (FCS), usually to maximally 70-80% confluency. Cells were harvested with a short trypsin treatment (0.1% in Ca^2+/Mg^2+-free Hank's medium for 90 seconds) stopped by addition of FCS in excess, collected by centrifugation. Cells were resuspended in either DMEM/FCS or defined serum-free medium (MEM) and used for experiments. Dissociated rat CNS glial cells were prepared starting from optic nerves of 6-7 days old Lewis rats as described in Section 6.1.1, supra and plated into poly-D-lysine (PLYS) coated wells (100 mm^2, 100 μl medium) at a density of 20,000 cells per well. The culture medium was an enriched L15 medium with 5% rat serum, penicillin and streptomycin. C6, 3T3 and B16 cells were added to 2 day old cultures at a concentration of 30,000 cells per well, incubated for two hours and fixed with warm 4% formalin in phosphate buffer. Inhibitory oligodendrocytes were identified by double labelling using the specific antibodies O1 and O4 (see Section 6.1.3, supra).
Myelin from rat spinal cord (CNS) or sciatic nerve (PNS) purified on a discontinuous sucrose gradient as described in Section 6.1.5., was dried overnight onto PLYS coated wells (20 μg protein/well of 100 mm^2 surface). Unbound membranes were removed by three washes with Ca^2+/Mg^2+-free Hank's solution. Myelin coated wells were immediately used in substrate testing assays by the addition of 9,000 cells (C6, 3T3, or B16) per cm^2. Alternatively, we used extracted CNS myelin protein, or SDS-PAGE purified 35 and 250 kD inhibitory proteins reconstituted in liposomes (see Section 7.1.5, supra). Experiments were scored at different time points using a phase contrast microscope equipped with a photocamera. Quantifications were done using a surface integration program; three arbitrary fields were photographed for each well at a magnitude of 80×, at least 25 cells per picture were measured. Each point represents the mean of at least 3 wells±SEM. Results are expressed as μ^2 of projected cell surface, or as degree, which was calculated by subtracting from the projected surface value of a spreading cell, the surface value of a completely spheric cell.

3T3 cells = test: Treatment of CNS myelin with C6 plasma membranes, 3T3 spreading and 3H-thymidine incorporation; format: cell-based, mouse; conditions: 3T3 spreading on CNS myelin pretreated with C6 plasma membranes
Description: C6 cells grown to 80% confluency were washed twice with Hank's medium, and harvested in 20 ml 8.5% sucrose, 50 mM NaCl, 10 mM Tris buffer, pH 7.4, using a rubber policeman. After mechanical homogenization through a series of needles of decreasing size, a low purity plasma membrane fraction was obtained by centrifugation (5 minutes at 3000×g, 10 minutes at 8000×g, and then 2 hours at 100,000×g). A higher purity fraction was isolated by loading the material on a discontinuous sucrose gradient, containing 50 mM NaCl, 10 mM Tris, pH 7.4 (Quigley, 1976, J. Cell Biol. 71: 472-486). 20-40% sucrose interphase (C6 plasma membranes fraction) and 40-60% sucrose interphase (C6 mitochondrial fraction) were collected, washed in Hank's medium and resuspended in MEM.
CNS myelin coated PLYS wells were prepared as described in the previous section, but instead of being immediately tested as substrate, they were first incubated with 50 μl of C6 plasma membranes (containing 0.8 mg protein/ml MEM) at 37° for 30 minutes. Dishes were then rinsed twice with Hank's medium and immediately used as substrates for 3T3 cells. In some experiments, protease blockers were added to the membranes using 10 times concentrated solutions.

C6 cells [2] = test: C6 cell attachment and spreading on rat cerebellar frozen sections; format: cell-based; conditions: 1,10-phenanthroline 50-300 μM; cbz-tyr-tyr 100 μM
Description: Adult rat cerebellum frozen sections were prepared and dried on glass coverslips. 70,000 C6, 3T3, or B16 cells in 100 μl were added to each well containing slices previously rinsed with cold DMEM/FCS. Cultures were incubated for 2 days at 37° C. Cultures were then fixed and stained with cresyl violet. Three to four cerebellum slices were used per point per experiment, with each experiment being repeated at least 2 times.

C6 glioblastoma cells = test: cells; format: cell-based, rat; conditions: 2 h
Description: Rat C6 glioblastoma cells (Benda et al., 1968, Science 161:370-371) were cultured in Dulbecco's modified Eagle's medium (DMEM) supplemented with 10% fetal calf serum (FCS), usually to maximally 70-80% confluency (Paganetti et al., 1988, J. Cell Biol. 107:2281-2291). All cell culture media were routinely supplemented with penicillin and streptomycin. Cells were harvested by a short trypsin treatment (0.1% in Ca^2+/Mg^2+-free [CMF] PBS/EDTA solution for 90 seconds) followed by addition of DMEM/10% FCS and centrifugation (600×g, 6 min). The cell pellet was rinsed with 5 ml DMEM/10% FCS and centrifuged. For cell spreading assays, cells were resuspended at 10^6/ml in defined serum-free medium (MEMα) supplemented with 0.2 μg/ml insulin, 0.5 μg/ml transferrin and 0.12 μg/ml bovine serum albumin (BSA). Protease blockers or peptides were added directly to the cell suspension from 10×solutions 10 min before plating.
Spinal cord myelin from young adult Lewis rats was purified on a discontinuous sucrose gradient (Colman et al., 1982, J. Cell Biol. 95:598-608; Schwab and Caroni, 1988, J. Neurosci. 8:2381-2393) and stored in 100 mM sucrose, 25 mM TRIS/HCl pH 7.4 at −80° C. up to 6 months. The myelin suspension ([…]) was incubated for 30 min on poly-D-lysine-coated wells (PLYS-wells). Unbound myelin membranes were removed by rinsing twice with CMF-Hank's and once with MEMα. Myelin-coated wells were used immediately for the spreading assay by adding 9'000 C6 cells per cm^2. Experiments were scored as described (Paganetti et al., 1988, J. Cell Biol. 107:2281-2291).

[3] = test system: C6 plasma membrane associated metalloendoprotease; test: Enzyme assay: cbz-FAF[125I]Y-NH2 degradation by C6 plasma membranes with protease blockers; format: biochemical, rat
Description: For most experiments, 70-80% confluent cell layers (1 cm^2 wells, 100 μl MEMα) or 2-5 μg C6 plasma membrane (100 μl MEMα) were used. […] If indicated, cell layers or plasma membrane suspensions were preincubated for 30 min with protease blockers or peptides. NEM or iodacetamide incubations of plasma membranes were performed at pH 8.5. The incubation was stopped by loading a 10 μl aliquot of the incubation medium on a thin layer chromatography plate (10 cm height, Kieselgel 60 F254, MERCK, Germany) and air dried. […] Plates were then air dried and exposed on Kodak X-OMAT films (NY, USA) with an intensifying screen. To identify the degradation products on thin-layer chromatography, we run reference peptides under the same conditions.
For the quantification of the activity, the reaction was stopped by addition of an equal volume of chloroform. […] Activity is expressed as % radioactivity contained in the aqueous phase. 100% is the sum of the radioactivity of both phases.

C6 cells [4] = test: C6 cell infiltration into optic nerve explants; format: cell-based, rat; conditions: nerves injected with 3 mM peptide, 0.5 mM in medium; 14 days
Description: Optic nerve and sciatic nerve explants were prepared as described (Schwab and Thoenen, 1985, J. Neurosci. 5:2415-2423). Briefly, the nerves were rapidly dissected from about 8 week old male rats, cleaned from the meninges, 3 times frozen and thawed using liquid nitrogen, and placed under a teflon ring (diameter 13 mm, thickness 1 mm) sealed to a culture dish with silicon grease. Two chambers connected only by the explants were in this way obtained. 300,000 C6, 3T3 or B16 cells were plated in the inner chamber in DMEM/FCS and incubated for 5 to 20 days. The medium was changed every other day. Cultures were fixed overnight with 4% formalin. The nerve explants were mounted with Tissue-Tek, 10 to 15 μm sections were cut in a cryostate and collected on gelatine coated cover slips. After drying at room temperature overnight, the sections were stained in 0.75% cresyl violet, and evaluated. The infiltrated cells were counted for each 0.1 mm of the explants, starting from the tip where cells were added. Due to the 15 day incubation, the explants were often different in diameter. Therefore, only the central part of the nerves (0.25 mm) were considered, since only this part of the explants presented a good histological quality. Inhibition experiments were performed with nerve explants previously injected from both sides with 2 μl of 3 mM cbz-tyr-tyr or cbz-ala-phe solutions.

[5] = C6 cells, 1,10-phenanthroline 0.3 mM, antibody as labelled or none, 150 minutes

Compound | Inhibition on CNS (%) (C6 cells [1]; C6 cells) | Effect on neutralization of CNS myelin inhibitory activity by C6 plasma membranes, in words (3T3 cells) | C6 cells on white matter of cerebellar frozen sections, in words (C6 cells [2]) | Effect on cbz-FAF[^125I]Y-NH2 degradation by C6 plasma membranes, in words [3] | other results
c1cnc2c(c1)ccc1cccnc12 [1,10-phenanthroline] | 67 | completely blocked the C6 plasma membrane effect | dramatically changed the distribution and behavior of C6 cells on the white matter areas | completely blocked the degradation | Effect on C6 cell spreading on control substrates (PLYS, glass, PNS myelin), in words (C6 cells [1]; 1,10-phenanthroline up to 0.5 mM): did not impair C6 cell spreading; Concentration exerting a general toxic effect on all substrates (C6 cells [1]; C6 cells, 3 hours): above 0.5 mM; % inhibition on CNS lipos. (C6 cells [1]; C6 cells, 1,10-phenanthroline 0.3 mM, antibody as labelled or none): 46%; Spreading value on CNS lipos. (C6 cells [1]; [5]): 1.35 μm^2 10^3; Spreading value on PLYS (C6 cells [1]; [5]): 2.49 μm^2 10^3; IC50 (C6 cells [1]; Rattus norvegicus, C6, Section 9, read-out: Half maximal inhibition (IC50) of C6 spreading on CNS myelin): 200 µM; Maximal inhibition of C6 cell spreading on CNS myelin (C6 cells [1]; after 2 hours in culture): up to 67%; IC50 (C6 glioblastoma cells; Rattus norvegicus, C6 cell spreading on CNS myelin, read-out: IC50 on CNS myelin): 200 µM; IC50 (C6 glioblastoma cells; Rattus norvegicus, C6 cell spreading on PLYS, read-out: IC50 PLYS): 600 µM; IC50 [3]: 200 µM; Effect on cbz-FAF[^125I]Y-NH2 degradation by C6 plasma membranes, in words ([3]; listed as o-phenanthroline): blocked completely either activities
NC(=O)[C@H](Cc1ccccc1)NC(=O)CNC(=O)OCc1ccccc1 [cbz-gly-phe-NH2, carbobenzoxy-glycine-phenylalanine-amide] (Cbz-Gly-Phe-NH2) | 55 | completely blocked the C6 plasma membrane effect |  |  | 
O=C(N[C@@H](Cc1ccc(O)cc1)C(=O)N[C@@H](Cc1ccc(O)cc1)C(=O)O)OCc1ccccc1 [cbz-tyr-tyr, carbobenzoxy-tyrosine-tyrosine] (Cbz-Tyr-Tyr-OH) | 45 |  | dramatically changed the distribution and behavior of C6 cells on the white matter areas |  | Maximal inhibition of C6 cell spreading on CNS myelin (C6 cells [1]; 2 h): up to 67%; C6 cell infiltration into optic nerve explants, in words (C6 cells [4]): inhibited C6 cell infiltration in all the 8 nerves examined; IC50 (C6 glioblastoma cells): 300 µM
CC(=O)N[C@@H](CC(C)C)C(=O)N[C@@H](CC(C)C)C(=O)N[C@H](C=O)CCCNC(=N)N [leupeptine] | 8 | did not inhibit this effect |  | had no effect | 
CC(C)CC(=O)N[C@H](C(=O)N[C@H](C(=O)N[C@@H](CC(C)C)[C@@H](O)CC(=O)N[C@@H](C)C(=O)N[C@@H](CC(C)C)[C@@H](O)CC(=O)O)C(C)C)C(C)C [pepstatine] (Isovaleryl-VV[Sta]A[Sta]-OH) | 3 | did not inhibit this effect |  | had no effect | 
